In patent US20230002346A1, “NEW COMPOUNDS AND METHODS” (BenevolentAl Bio Limited, priority 2019, published 2023):
In brackets after ≈: the same amount, converted by molar mass.

How the values were obtained:
[1] = Brain to plasma (B:P) ratio in rat; format: in vivo, Sprague Dawley Rats; details: male, Sprague Dawley, po, p.o. 3.0 mg/kg, 30% HPBC in water; for Kp: timepoints averaged 0.5-4 h
Description: Male Sprague Dawley Rats 300-350 g (Charles River, UK) were group housed, n=3, under a 12 h light/dark cycle with food and water available ad libitum. At 17:00 on the day prior to dosing all food was removed. On the day of dosing animals were weighed, tail marked and dosed via oral gavage with compound at 3 mg/kg in a volume of 5 mL/kg. Animals were culled at 30 min, 1 h and 4 h post dose via intra-peritoneal administration of pentobarbital. Post mortem blood was withdrawn via cardiac puncture, and briefly stored in K2 EDTA blood tubes on ice before being spun at 14,000 g for 4 min at 4° C. Plasma was withdrawn into a 96 well plate, placed on dry ice and stored at −80° C. Brains were quickly dissected and placed on dry ice before storage at −80° C. Bioanalysis of plasma and brain samples is performed as detailed below. Methods were prepared with guidance from industry standard documents.^i,ii […] Calibration lines are prepared in control male Sprague-Dawley Rat plasma at known concentrations in the range of 1-10000 ng/mL by spiking 2.5 μL of calibration spiking solution into 25 μL control plasma. Experimental samples are thawed to RT and 25 μL aliquots are extracted alongside the calibration lines using protein precipitation (agitation for at least 5 min at RT with 400 μL of MeCN containing 25 ng/mL tolbutamide as an internal standard). Protein precipitates are separated from the extracted test compound by centrifugation at 4000 rpm for 5 min, 4° C. […] Samples are analysed by UPLC-MS/MS on either an API6500 QTrap or Waters 30 TQS mass spectrometer using previously optimised analytical MRM (multiple reaction monitoring) methods, specific to the test compound. The concentration of test compound in isolated samples is determined following analysis of the samples against the two replicates of the calibration line, injected before and after the sample set with an appropriate regression and weighting used. Only samples within 20% of the expected test concentration are included in the calibration line and any samples that fall outside of the limits of the calibration line will be deemed to be less than or above the limit of quantification (LLoQ/ALoQ). […] Calibration lines are prepared in control male Sprague-Dawley Rat brain homogenate at known concentrations in the range of 3-30000 ng/g by spiking 2.5 μL of calibration spiking solution into 25 μL control homogenate. To prepare control and experimental brain homogenates, brains are thawed, weighed and a volume of diluent added (water) in the ratio of 2 mL per gram of brain. Homogenisation of brains is performed by bead-beater homogenisation using Precellys Evolution and CK14 7 mL small ceramic bead homogenisation tubes. Aliquots of 25 μL experimental sample are extracted alongside the calibration lines using protein precipitation (agitation for at least 5 min at RT with 400 μL of MeCN containing 25 ng/mL tolbutamide as an internal standard). Protein precipitates are separated from the extracted test compound by centrifugation at 4000 rpm for 5 min, 4° C. […] Samples are analysed by UPLC-MS/MS on either an API6500 QTrap or Waters TQS mass spectrometer using previously optimised analytical MRM (multiple reaction monitoring) methods, specific to the test compound. The concentration of test compound in isolated samples is determined following analysis of the samples against the two replicates of the calibration line, injected before and after the sample set with an appropriate regression and weighting used. Only samples within 20% of the expected test concentration are included in the calibration line and any samples that fall outside of the limits of the calibration line will be deemed to be less than or above the limit of quantification (LLoQ/ALoQ). Total brain to plasma (B:P) ratios were calculated by dividing the concentration in the brain by the concentration in plasma for each timepoint. The mean brain to plasma ratio is calculated by averaging these brain to plasma ratios across certain timepoints. […]

hERG channel = molecular target: T1, hERG channel (Homo sapiens, UniProt Q12809); experiment: hERG assay (QPatch automated patch clamp, CHO cells); format: cell-based; details: CHO cells expressing hERG, whole-cell patch clamp, 0.003 μM to 10 μM
T1 construct: expressed in transfected cells
T1 sequence (Q12809 whole entry): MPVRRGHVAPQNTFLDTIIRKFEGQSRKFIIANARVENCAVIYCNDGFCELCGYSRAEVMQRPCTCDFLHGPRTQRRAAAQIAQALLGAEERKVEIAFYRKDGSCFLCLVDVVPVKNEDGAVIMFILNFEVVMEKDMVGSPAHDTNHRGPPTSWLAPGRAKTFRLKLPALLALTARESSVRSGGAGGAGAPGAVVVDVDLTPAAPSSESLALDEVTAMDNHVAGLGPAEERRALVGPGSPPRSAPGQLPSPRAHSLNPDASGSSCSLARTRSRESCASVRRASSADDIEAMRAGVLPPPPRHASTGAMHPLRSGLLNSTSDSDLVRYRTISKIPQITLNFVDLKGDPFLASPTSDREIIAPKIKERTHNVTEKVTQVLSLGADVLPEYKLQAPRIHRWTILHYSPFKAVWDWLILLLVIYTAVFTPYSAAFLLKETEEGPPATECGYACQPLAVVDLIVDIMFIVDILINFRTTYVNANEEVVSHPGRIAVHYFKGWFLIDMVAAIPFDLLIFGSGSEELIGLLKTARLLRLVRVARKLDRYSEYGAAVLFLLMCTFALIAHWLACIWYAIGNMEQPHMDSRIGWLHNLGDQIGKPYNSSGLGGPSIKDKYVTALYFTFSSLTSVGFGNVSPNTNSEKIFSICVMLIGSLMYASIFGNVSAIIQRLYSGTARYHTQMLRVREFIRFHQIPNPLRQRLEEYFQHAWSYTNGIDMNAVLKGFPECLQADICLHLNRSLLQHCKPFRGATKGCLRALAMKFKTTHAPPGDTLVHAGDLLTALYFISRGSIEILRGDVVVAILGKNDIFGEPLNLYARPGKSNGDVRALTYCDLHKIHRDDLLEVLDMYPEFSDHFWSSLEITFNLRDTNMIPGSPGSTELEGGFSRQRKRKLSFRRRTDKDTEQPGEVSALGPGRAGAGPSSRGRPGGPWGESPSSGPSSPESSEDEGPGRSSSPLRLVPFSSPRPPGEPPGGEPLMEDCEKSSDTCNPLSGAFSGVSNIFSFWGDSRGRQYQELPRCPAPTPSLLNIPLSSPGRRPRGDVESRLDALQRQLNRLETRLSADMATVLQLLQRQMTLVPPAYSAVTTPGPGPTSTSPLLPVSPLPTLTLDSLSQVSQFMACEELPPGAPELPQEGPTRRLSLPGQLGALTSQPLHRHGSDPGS
From the text: The human ether-a-go-go related gene (hERG) potassium channel (Kv11.1) contributes to human cardiac action potential repolarisation. Inhibition of hERG channels can prolong the human cardiac action potential, resulting in QTc prolongation and potentially lethal arrhythmias (e.g. Torsade de Pointes).
Test samples were screened against the hERG channel on a QPatch 48 gigaseal automated patch clamp platform, using a Chinese Hamster Ovary (CHO) cell line stably expressing the human ether-á-go-go related gene, which encodes the hERG channel. All recordings were made in the conventional whole-cell configuration and performed at RT ([…]) using standard single hole chips (Rchip 1.5-4M0). Series resistance (4-15Mc) was compensated by >80%. Currents were elicited from a holding potential of −90 mV using the industry standard “^+40/−40” voltage protocol, which was applied at a stimulus frequency of 0.1 Hz. On achieving the whole-cell configuration, vehicle (0.1% DMSO v/v in external recording solution) was applied to each cell in two bolus additions with a 2 min recording period between each addition. Following the vehicle period, eight increasing concentrations of test sample were applied from 0.003 μM to 10 μM as a single bolus addition per test concentration, and the effects on hERG tail current amplitude measured during the 2 min recording period. Each eight-point concentration-response curve was constructed using cumulative single sample additions of each concentration to the same cell. The positive control used in this study was verapamil hydrochloride (Tocris, Cat #0654, Batch #5A/61673) and prepared to a stock concentration of 10 mM in 100% DMSO and kept as frozen aliquots.
Data analysis: All cells passing the QC parameters (i.e. >200 pA outward current, membrane resistance and rundown) are selected as ‘passed QC’ using the QPatch software, which then calculates the mean peak current for the last three sweeps at the end of each concentration application period from the cursor positions defined. Percent inhibition is calculated for each test concentration application period as the reduction in mean cursor value (peak current or charge) relative to the cursor value measured at the end of the control (i.e. vehicle) period. The percent inhibition values from each cell are used to construct concentration-response curves employing a four parametric logistic fit with 0 and 100% inhibition levels fixed at very low and very high concentrations, respectively, and a free Hill slope factor. The IC50 (50% inhibitory concentration) and Hill coefficient are then determined, but only data from cells with Hill slopes within 0.5>nH<2.0 are included. The IC50 data reported below represents the mean (and S.D.) of at least three separate cells (N≥3). […] Compounds of the invention show reduced hERG inhibitory activity compared to the reference examples.

[2] = Kinetic aqueous solubility assay; format: physicochemical; details: aqueous buffer, kinetic from dmso stock, 0.05M potassium phosphate buffer pH 7.4, 250 μM spike, RT
Description: Using a 10 mM stock solution of test compound in 100% DMSO, test compounds were spiked into 0.05M potassium phosphate buffer (pH 7.4) at a final concentration of 250 μM. Samples in buffer (n=2 aqueous samples, in 96-well plates) were allowed to equilibrate at RT on an orbital shaker for 30 min (300 rpm) to induce precipitation of test compounds. The appearance of each sample was determined by visual examination and noted (clear, cloudy, precipitate observed etc.). […] The concentration of compound in phosphate buffer filtrate was determined by comparing the UV absorbance peak area of each replicate against that of the calibration standards. […] Compounds of the invention have much improved solubility compared to the reference examples.

[3] = Rat PK profile (bioavailability, clearance, half-life); format: in vivo; details: male, Sprague Dawley, plasma, i.v. dose 1 mg/kg; for clearance / half-life: iv; for half-life: read-out: T½ (converted); for bioavailability: po, p.o. dose 3 mg/kg
Description: Male Sprague Dawley Rats 300-350 g (Charles River, UK) were group housed, n=3, under a 12 h light/dark cycle with food and water available ad libitum. At 17:00 on the day prior to dosing all food was removed. On the day of dosing animals were weighed, tail marked and dosed via oral gavage with compound at 3 mg/kg in a volume of 5 mL/kg. Animals were culled at 30 min, 1 h and 4 h post dose via intra-peritoneal administration of pentobarbital. Post mortem blood was withdrawn via cardiac puncture, and briefly stored in K2 EDTA blood tubes on ice before being spun at 14,000 g for 4 min at 4° C. Plasma was withdrawn into a 96 well plate, placed on dry ice and stored at −80° C. Brains were quickly dissected and placed on dry ice before storage at −80° C. Bioanalysis of plasma and brain samples is performed as detailed below. Methods were prepared with guidance from industry standard documents.^i,ii
A 10 mM DMSO stock is used to prepare spiking solutions of test compound in the range of 10-100,000 ng/mL in diluent (MeCN:water, 1;1). Calibration lines are prepared in control male Sprague-Dawley Rat plasma at known concentrations in the range of 1-10000 ng/mL by spiking 2.5 μL of calibration spiking solution into 25 μL control plasma. Experimental samples are thawed to RT and 25 μL aliquots are extracted alongside the calibration lines using protein precipitation (agitation for at least 5 min at RT with 400 μL of MeCN containing 25 ng/mL tolbutamide as an internal standard). Protein precipitates are separated from the extracted test compound by centrifugation at 4000 rpm for 5 min, 4° C. The resulting supernatants are diluted in a ratio of 1:2 with a relevant diluent (e.g. 0.1% formic acid in water or 1:1 MeOH:water). Samples are analysed by UPLC-MS/MS on either an API6500 QTrap or Waters 30 TQS mass spectrometer using previously optimised analytical MRM (multiple reaction monitoring) methods, specific to the test compound. The concentration of test compound in isolated samples is determined following analysis of the samples against the two replicates of the calibration line, injected before and after the sample set with an appropriate regression and weighting used. Only samples within 20% of the expected test concentration are included in the calibration line and any samples that fall outside of the limits of the calibration line will be deemed to be less than or above the limit of quantification (LLoQ/ALoQ).
Pharmacokinetic parameters such as bioavailability (% F), clearance (CL), half-life (T½) and volume of distribution are calculated by non-compartmental analysis using Phoenix Winnonlin 64 software (build 8.0). The bioavailability was calculated from p.o. dosed rats, whereas the clearance and half-life were calculated from i.v. dosed rats. Briefly, in vivo plasma concentrations, timepoints and dose values are imported into the software in a compatible format. Plasma concentration for each animal is plotted against time, and the elimination phase identified and selected. The area under the curve for each plot is calculated using a linear trapezoidal linear interpolation from which pharmacokinetic parameters can subsequently be determined. […] Compounds of the invention have much improved clearance (CL) and half-life (T½) compared to the reference examples.

Kp [1]	solubility at 30 min [2] [µM]	clearance [3] [mL/min/kg]	half-life [3] [h]	bioavailability [3] [%]	Structure (SMILES)	IC50 (hERG channel) [µM]	also measured
0.79					COc1ccc(-n2cc(C(=O)Nc3ccc(OC(F)(F)Cl)cc3)ccc2=O)cn1 [Example 13, N-[4-[Chloro(difluoro)methoxy]phenyl]-1-(6-methoxy-3-pyridyl)-6-oxo-pyridine-3-carboxamide]		
0.68					O=C(Nc1ccc(OC(F)(F)Cl)cc1)c1ccc(=O)n(-c2ccc(F)c(F)c2)c1 [Example 24, N-[4-(Chlorodifluoromethoxy)phenyl]-1-(3,4-difluorophenyl)-6-oxo-1,6-dihydropyridine-3-carboxamide]	> 10	
					COc1cccc(-n2cc(C(=O)Nc3ccc(OC(F)(F)Cl)cc3)ccc2=O)c1 [Example 35, N-[4-(Chlorodifluoromethoxy)phenyl]-1-(3-methoxyphenyl)-6-oxo-1,6-dihydropyridine-3-carboxamide]	> 10	Kp at 1 h ([1]; timepoint 1 h): 1.11
0.98	120 (≈ 49.1 µg/mL)				O=C(Nc1ccc(OC(F)(F)Cl)cc1)c1ccc(=O)n(-c2ccc(F)cc2)c1 [Example 42, N-[4-(Chlorodifluoromethoxy)phenyl]-1-(4-fluorophenyl)-6-oxo-1,6-dihydropyridine-3-carboxamide]		
1.54					O=C(Nc1ccc(OC(F)(F)Cl)cc1)c1ccc(=O)n(-c2cccc(F)c2)c1 [Example 47, N-[4-(Chlorodifluoromethoxy)phenyl]-1-(3-fluorophenyl)-6-oxo-1,6-dihydropyridine-3-carboxamide]	> 10	
0.31	170 (≈ 69 µg/mL)				Cc1ccc(-n2cc(C(=O)Nc3ccc(OC(F)(F)Cl)cc3)ccc2=O)cn1 [Example 65, N-[4-(Chlorodifluoromethoxy)phenyl]-6′-methyl-2-oxo-2H-[1,3′-bipyridine]-5-carboxamide]		
		3	6.2	102	Cn1cc(C(=O)Nc2ccc(OC(F)(F)Cl)cc2)cc(-c2cccnc2)c1=O [Example 81, N-[4-[Chloro(difluoro)methoxy]phenyl]-1-methyl-6-oxo-5-(3-pyridyl)pyridine-3-carboxamide]		
0.69					Cn1cc(C(=O)Nc2ccc(OC(F)(F)Cl)cc2)cc(-c2ccccc2)c1=O [Example 88, N-[4-[Chloro(difluoro)methoxy]phenyl]-1-methyl-6-oxo-5-phenyl-pyridine-3-carboxamide]		
	< 5	12	1.2	113	O=C(Nc1ccc(OC(F)(F)F)cc1)c1cncc(-c2cccnc2)c1 [Ref. ex. 4, 5-(3-Pyridyl)-N-[4-(trifluoromethoxy)phenyl]pyridine-3-carboxamide, reference compound]	4.7	

Structure (SMILES)	Kp [1]	solubility at 30 min [2] [µM]	clearance [3] [mL/min/kg]	half-life [3] [h]	bioavailability [3] [%]	IC50 (hERG channel) [µM]	also measured
O=C(Nc1ccc(OC(F)(F)Cl)cc1)c1cnc(N2CC[C@@H](O)C2)c(-c2ccn[nH]2)c1 [Ref. ex. 1, N-[4-[Chloro(difluoro)methoxy]phenyl]-6-[(3R)-3-hydroxypyrrolidin-1-yl]-5-(1H-pyrazol-5-yl)pyridine-3-carboxamide, reference compound]			22	2.1	4		
